EP0067711A2, “New 1-benzyl-3,4-dihydro-isoquinoline derivative” (CHINOIN Gyogyszer és Vegyészeti Termékek Gyára RT., priority 1981, dated 1982)

Experiments:
[1] = tested on: electric fibrillation threshold of the auricle and ventricle; experiment: antiarrhythmial effect: change of electric fibrillation threshold in chloralose-urethane anaesthetized cats; format: in vivo; settings: 1 mg/kg i.v.
Experimental: The antiarrhythmial effect is determined on chloralose-urethane anaesthetized cats [500/300 mg/kg i.p.] by measuring the changes of the electric fibrillation threshold of the auricle and ventricle respectively [method of Szekeres, Méhes and Papp: Brit. 0. Pharmacol. 17, 167 (1961) and that of Szekeres and Papp: Hdb. exp. Pharmacol. 16/3, 131 (1975) respectively]. The general effects exerted on the haemodynamic and cardiovascular system are tested on pentobarbital anaesthetized dogs (35 mg/kg i.v.).

[2] = tested on: haemodynamic and cardiovascular system; experiment: general effects on the haemodynamic and cardiovascular system in pentobarbital anaesthetized dogs; format: in vivo; design: A. vertebralis flow, Changed value: unit not given here; settings: 1 mg/kg i.v.
[3] = tested on: acute coronary insufficiency induced by vasopressine; experiment: anti-angina activity: inhibition of vasopressine-induced acute coronary insufficiency (rise of T-wave on ECG), method of Papp and Szekeres; format: in vivo, rats belonging to the CFY strain; settings: vasopressine 2 IU/kg i.v., pentobarbital anaesthetized CFY rats; papaverin = 1

Q: What does the source list for `CCOc1cc(CC2=NCCc3cc(OCC)c(OCC)cc32)ccc1O` [Formula VII, 6,7-diethoxy-1-(3-ethoxy-4-hydroxy-benzyl)-3,4-dihydro-isoquinoline, reference compound]?
A: Arterial blood pressure, Duration of effect [1]: 5 min; Arterial blood pressure, Percental difference [1]: -23; Auricle fibrillation threshold, Duration of effect [1]: 9 min; Auricle fibrillation threshold, Percental difference [1]: +48; Ventricle fibrillation threshold, Duration of effect [1]: 12 min; Ventricle fibrillation threshold, Percental difference [1]: +43; Auricle fibrillation threshold, Changed value ([1]; average + S.E., basic value 0.52 ± 0.07): 0.77 ± 0.19 mA; Ventricle fibrillation threshold, Changed value ([1]; average + S.E., basic value 0.70 ± 0.10): 1.00 ± 0.18 mA; Arterial blood pressure, Changed value ([1]; average + S.E., basic value 142 ± 11): 110 ± 16 Hgmm; A. carotis flow, Duration of effect [2]: 12 min; A. carotis flow, Percental difference [2]: -12; A. carotis resistance, Duration of effect [2]: 15 min; A. femoralis flow, Duration of effect [2]: 11 min; A. femoralis resistance, Duration of effect [2]: 18 min; A. vertebralis flow, Duration of effect [2]: 7 min; A. vertebralis resistance, Duration of effect [2]: 12 min; A. vertebralis resistance, Percental difference [2]: +12; Arterial blood pressure, Duration of effect [2]: 8 min; Arterial blood pressure, Percental difference [2]: -22; Contractibility of the left ventricle (dp/dt), Percental difference [2]: -13; Coronary flow, Duration of effect [2]: 15 min; Coronary flow, Percental difference [2]: +18; Coronary resistance, Duration of effect [2]: 11 min; Coronary resistance, Percental difference [2]: -22; Efficiency of cardial function, Duration of effect [2]: 20 min; Efficiency of cardial function, Percental difference [2]: -13; Frequence volume, Duration of effect [2]: 5 min; Function of the left ventricle, Duration of effect [2]: 13 min; Function of the left ventricle, Percental difference [2]: -19; Heart frequence/min, Duration of effect [2]: 7 min; Minute volume, Duration of effect [2]: 3 min; Myocardial oxygenization (O2 supply per O2 consumption), Duration of effect [2]: 18 min; Myocardial oxygenization (O2 supply per O2 consumption), Percental difference [2]: +10; Oxygen consumption of the left ventricle, Duration of effect [2]: 9 min; Total peripherial resistance, Duration of effect [2]: 14 min; Total peripherial resistance, Percental difference [2]: -32; Efficiency of cardial function, Changed value ([2]; average + S.E., basic value 0.32 ± 0.03): 0.28 ± 0.05 mkg/ml/100 g; Coronary resistance, Changed value ([2]; average + S.E., basic value 1.03 ± 0.10): 1.42 ± 0.22 Hgmm/ml/min/100 g; Myocardial oxygenization (O2 supply per O2 consumption), Changed value ([2]; average + S.E., basic value 1.62 ± 0.06): 1.79 ± 0.10; A. carotis resistance, Changed value ([2]; average + S.E., basic value 2.04 ± 0.3): 2.19 ± 0.4 Hgmm/ml/min; Function of the left ventricle, Changed value ([2]; average + S.E., basic value 2.74 ± 0.49): 2.22 ± 0.56 mkg/min; A. vertebralis resistance, Changed value ([2]; average + S.E., basic value 3.22 ± 0.61): 3.65 ± 0.32 Hgmm/ml/min; A. femoralis resistance, Changed value ([2]; average + S.E., basic value 3.48 ± 0.45): 3.69 ± 0.68 Hgmm/ml/min; Frequence volume, Changed value ([2]; average + S.E., basic value 8,8 ± 1): 9.5 ± 1.2 mL; Oxygen consumption of the left ventricle, Changed value ([2]; average + S.E., basic value 8.4 ± 0.9): 7.9 ± 1.9 ml/min/100 g; A. femoralis flow, Changed value ([2]; average + S.E., basic value 46 ± 5): 42 ± 5 mL/min; A. vertebralis flow, Changed value ([2]; average + S.E., basic value 54 ± 9): 50 ± 7; Coronary flow, Changed value ([2]; average + S.E., basic value 73 ± 13): 86 ± 13 ml/min/100 g; A. carotis flow, Changed value ([2]; average + S.E., basic value 91 ± 9): 80 ± 10 mL/min; Arterial blood pressure, Changed value ([2]; average + S.E., basic value 147 ± 9): 115 ± 11 Hgmm; Heart frequence/min, Changed value ([2]; average + S.E., basic value 173 ± 8): 160 ± 9 min⁻¹; Minute volume, Changed value ([2]; average + S.E., basic value 1500 ± 153): 1466 ± 233 mL/min; Contractibility of the left ventricle (dp/dt), Changed value ([2]; average + S.E., basic value 5625 ± 557): 4883 ± 419 Hgmm/sec; Total peripherial resistance, Changed value ([2]; average + S.E., basic value 7015 ± 238): 4785 ± 275 dyn. sec. cm^-5; anti-angina activity related to that of papaverin [3]: 1.28
